Patent US20260297042A1, “BIARYLAMIDE DERIVATIVES AND THEIR USE AS PKMYT1 INHIBITORS” (CANCER RESEARCH TECHNOLOGY LIMITED, priority 2023, published 2026)

Experiments:
OVCAR 3 cells = assay: Cancer cell line proliferation assay, ATP-based cell viability (Cell Titre Glow), OVCAR 3 (CCNE1-amplified); conditions: KYSE30 (normal CCNE1) GI50 vs. OVCAR 3 (CCNE1-amplified) GI50
How it was run: (§1)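 CellTiter-Glo luminescence endpoint; PKMYT1 inhibitor exposure; GI50 = conc. for 50% growth inhibition, curve-fitted.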

WEE1 = biological target: T1, WEE1 (Homo sapiens, UniProt P30291); assay: Selectivity versus WEE1 assay (ADP-Glo enzymatic assay); type: biochemical; conditions: for IC50: ADP-Glo; for PKMYT1 vs. WEE1 selectivity: fold difference in selectivity for PKMYT1 over WEE1
T1 construct: purchased Thermo Fisher PR7373A
T1 sequence (P30291 whole entry): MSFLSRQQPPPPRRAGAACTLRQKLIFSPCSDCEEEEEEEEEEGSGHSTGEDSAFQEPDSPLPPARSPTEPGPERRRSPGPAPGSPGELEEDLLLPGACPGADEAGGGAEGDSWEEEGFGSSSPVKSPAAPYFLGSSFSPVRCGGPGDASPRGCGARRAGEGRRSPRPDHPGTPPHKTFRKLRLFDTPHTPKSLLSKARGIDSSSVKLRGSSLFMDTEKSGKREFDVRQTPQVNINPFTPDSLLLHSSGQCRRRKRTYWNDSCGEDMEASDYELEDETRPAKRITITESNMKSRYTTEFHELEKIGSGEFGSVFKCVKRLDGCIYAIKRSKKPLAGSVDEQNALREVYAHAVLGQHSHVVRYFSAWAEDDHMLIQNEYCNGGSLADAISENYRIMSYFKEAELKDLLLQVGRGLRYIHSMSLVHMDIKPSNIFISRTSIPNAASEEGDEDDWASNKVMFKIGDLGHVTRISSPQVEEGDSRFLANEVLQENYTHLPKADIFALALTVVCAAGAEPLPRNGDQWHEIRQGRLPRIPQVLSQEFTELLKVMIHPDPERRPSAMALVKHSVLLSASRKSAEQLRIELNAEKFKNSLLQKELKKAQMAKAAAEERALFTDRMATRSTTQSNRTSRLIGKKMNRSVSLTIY
How it was run: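 Compounds were pre-dispensed, enzyme (15 nM final) was added in pH 7.5 HEPES buffer, and ATP ([…]) then started a 60 min incubation at 26° C. Afterwards ADP-Glo reagents were added in turn and luminescence was measured to derive IC50 values.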

[1] = biological target: T2, Cellular PKMYT1 Biomarker CDK1 pT14 (Homo sapiens, UniProt Q99640); assay: Inhibition of cellular PKMYT1 biomarker CDK1 pT14 in OVCAR 3 cells (immunoblot); type: cell-based; conditions: 20 hours incubation
T2 construct: read-out CDK1 phospho-T14 immunoblot
T2 sequence (Q99640 1-499): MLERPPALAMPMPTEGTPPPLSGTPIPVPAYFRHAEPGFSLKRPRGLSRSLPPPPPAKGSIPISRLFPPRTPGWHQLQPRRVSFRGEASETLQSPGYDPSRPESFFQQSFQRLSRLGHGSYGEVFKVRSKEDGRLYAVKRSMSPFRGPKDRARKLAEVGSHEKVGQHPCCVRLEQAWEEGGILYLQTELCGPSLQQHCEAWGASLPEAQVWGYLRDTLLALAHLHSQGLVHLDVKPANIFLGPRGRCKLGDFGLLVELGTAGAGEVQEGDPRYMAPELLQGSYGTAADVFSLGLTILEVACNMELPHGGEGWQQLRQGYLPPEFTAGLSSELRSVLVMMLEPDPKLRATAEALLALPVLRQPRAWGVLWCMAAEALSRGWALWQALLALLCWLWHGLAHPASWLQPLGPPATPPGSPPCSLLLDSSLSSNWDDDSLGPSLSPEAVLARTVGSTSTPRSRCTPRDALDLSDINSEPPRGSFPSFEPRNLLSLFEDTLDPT
Protocol: To determine compound PKMYT1 IC50 in a cellular assay, OVCAR 3 cells were incubated at 37° C. in 5% CO2 atmosphere. The cells were maintained in RPMI medium supplemented with 20% foetal bovine serum, 1X non essential amino acids, 1 mM sodium pyruvate, Glutamax and insulin. Cells were seeded into 12-well plates at low density (50,000-200,000 cells per well), grown to confluence (~350-400,000 cells per well) and then treated with a range of concentrations of PKMYT1 inhibitors. The cells were incubated 20 hours and then harvested into 1X Laemmli Sample Buffer (BIORAD) without 2-mercaptoethanol, heated to 95° C. for 5 min, centrifuged and sonicated using a microprobe for 15 sec, 21W to shear the DNA.
The samples were analysed by immunoblot on a Jess Automated Western Blot System (BioTechne). The samples were separated using the 12-230 kDa Separation Module (BioTechne,) and blotted using an anti-CDK1 phospho T14 antibody (Abcam, #ab58509) and an anti-vinculin antibody (Abcam, #126002). Specific binding was detected by fluorescence using the Anti-Rabbit Detection Module (BioTechne, #DM-001), quantified using Compass for Simple Western software, and IC50 values were calculated by regression analysis in GraphPad Prism.

Human PKMYT1 = biological target: T3, Human PKMYT1 (Homo sapiens, UniProt Q99640); assay: PKMYT1 biochemical ADP-Glo enzymatic assay; conditions: ADP-Glo
T3 construct: Human PKMYT1 75-362 was cloned as a TEV cleavable 6xHis fusion; 6xHis (TEV cleavable) (cleaved yes); made in house; host or cells: bacterial cells
T3 sequence (Q99640 75-362): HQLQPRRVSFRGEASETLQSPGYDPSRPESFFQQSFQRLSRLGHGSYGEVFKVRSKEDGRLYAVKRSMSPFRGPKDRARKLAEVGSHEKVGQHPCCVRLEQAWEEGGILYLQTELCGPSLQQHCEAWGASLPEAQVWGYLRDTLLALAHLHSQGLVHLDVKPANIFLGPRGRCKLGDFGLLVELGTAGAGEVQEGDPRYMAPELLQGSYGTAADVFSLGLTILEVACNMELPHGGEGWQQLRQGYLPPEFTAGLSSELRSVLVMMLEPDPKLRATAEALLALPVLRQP
How it was run: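 Compounds were titrated over 10 points (3-fold steps), then 15 nM purified PKMYT1 kinase domain (aa 75-362) and 500 µM ATP were added in pH 7.5 HEPES buffer. After 60 min at 26 °C, remaining ATP was depleted and ADP converted to luminescence for IC50 fitting.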

KYSE-30 cells = assay: Cancer cell line proliferation assay, ATP-based cell viability (Cell Titre Glow), KYSE-30 (normal CCNE1); conditions: Homo sapiens, KYSE-30 cells (normal CCNE1), concentration that achieves 50% cell growth proliferation inhibition, read-out: KYSE30 Gl50
How it was run: as §1

[2] = PKMYT1 kinase domain 15 nM, banded values
[3] = 15 nM WEE1, 60 minutes at 26° C., banded
[4] = banded, ">N" = at least in this band but could be higher
[5] = 15 nM PKMYT1 kinase domain, 500 µM ATP, 60 minutes at 26° C., banded

Row | Structure (SMILES) | Selectivity ratio KYSE30 Gl50 vs. OVCAR3 Gl50 (OVCAR 3 cells) | IC50 (WEE1; WEE1 15 nM, banded values) [µM] | PKMYT1 vs. WEE1 selectivity (WEE1; banded) | IC50 [1] [µM] | IC50 (Human PKMYT1; [2]) [µM] | GI50 (KYSE-30 cells) [µM] | IC50 (WEE1; [3]) [µM] | PKMYT1 vs. WEE1 selectivity (WEE1; [4]) | IC50 (Human PKMYT1; [5]) [µM]
1 | Cc1cn(CC2CCOC2)nc1Nc1ncc(C(=O)Nc2c(C)ccc(O)c2C)s1 (stereo not shown) [BAA-543] | Y (>20 fold) | 1 to 11 | W (10-<100 fold) | < 0.1 | < 0.05 | > 5 | – | – | –
2 | Cc1ccc(O)c(C)c1NC(=O)c1cnc(Nc2cccc(N3CCC(F)(F)CC3)n2)s1 [BAA-314, 2-((6-(4,4-difluoropiperidin-1-yl)pyridin-2-yl)amino)-N-(3-hydroxy-2,6-dimethylphenyl)thiazole-5-carboxamide] | Y (>20 fold) | – | – | < 0.1 | – | 0.5 to 5 | 1 to 11 | W (10-<100 fold) | 0.05 to 1
3 | Cc1ccc(O)c(C)c1NC(=O)c1cnc(Nc2nc(N3CCOCC3)ccc2Cl)s1 [BAA-410, 2-((3-chloro-6-morpholinopyridin-2-yl)amino)-N-(3-hydroxy-2,6-dimethylphenyl)thiazole-5-carboxamide] | Y (>20 fold) | 1 to 11 | X (100-<1000 fold) | < 0.1 | < 0.05 | 0.5 to 5 | – | – | –
4 | Cc1ccc(O)c(C)c1NC(=O)c1cnc(Nc2nn(CCF)cc2Br)s1 [BAA-585, 2-((4-bromo-1-(2-fluoroethyl)-1H-pyrazol-3-yl)amino)-N-(3-hydroxy-2,6-dimethylphenyl)thiazole-5-carboxamide] | Y (>20 fold) | 1 to 11 | X (100-<1000 fold) | < 0.1 | < 0.05 | 0.5 to 5 | – | – | –
5 | Cc1ccc(O)c(C)c1NC(=O)c1cnc(Nc2cccc(-c3cccnc3)n2)s1 [BAA-397, 2-([2,3′-bipyridin]-6-ylamino)-N-(3-hydroxy-2,6-dimethylphenyl)thiazole-5-carboxamide] | Y (>20 fold) | 1 to 11 | W (10-<100 fold) | < 0.1 | < 0.05 | 0.5 to 5 | – | – | –
6 | Cc1ccnc(Nc2ncc(C(=O)Nc3c(C)ccc(O)c3C)s2)c1 [BAA-422, N-(3-hydroxy-2,6-dimethylphenyl)-2-((4-methylpyridin-2-yl)amino)thiazole-5-carboxamide] | Y (>20 fold) | 1 to 11 | X (100-<1000 fold) | < 0.1 | < 0.05 | 0.5 to 5 | – | – | –
7 | Cc1ccc(N)nc1Nc1ncc(C(=O)Nc2c(C)ccc(O)c2C)s1 [BAA-337, 2-((6-amino-3-methylpyridin-2-yl)amino)-N-(3-hydroxy-2,6-dimethylphenyl)thiazole-5-carboxamide] | Y (>20 fold) | – | – | < 0.1 | – | 0.5 to 5 | 1 to 11 | X (100-<1000 fold) | < 0.05
8 | Cc1ccc(O)c(C)c1NC(=O)c1cnc(Nc2cccc(CC(=O)N(C3CC3)C3CC3)n2)s1 [BAA-427, 2-((6-(2-(Dicyclopropylamino)-2-oxoethyl)pyridin-2-yl)amino)-N-(3-hydroxy-2,6-dimethylphenyl)thiazole-5-carboxamide] | Y (>20 fold) | > 11 | Z (>5000 fold) | < 0.1 | < 0.05 | > 5 | – | – | –
9 | Cc1ccnc(Nc2ncc(C(=O)Nc3c(C)ccc(O)c3C)s2)c1F [BAA-424, 2-((3-fluoro-4-methylpyridin-2-yl)amino)-N-(3-hydroxy-2,6-dimethylphenyl)thiazole-5-carboxamide] | Y (>20 fold) | > 11 | Y (1000-5000 fold) | < 0.1 | < 0.05 | > 5 | – | – | –
10 | Cc1cn(CC(F)F)nc1Nc1ncc(C(=O)Nc2c(C)ccc(O)c2C)s1 [BAA-478, 2-((1-(2,2-difluoroethyl)-4-methyl-1H-pyrazol-3-yl)amino)-N-(3-hydroxy-2,6-dimethylphenyl)thiazole-5-carboxamide] | Y (>20 fold) | 1 to 11 | X (100-<1000 fold) | < 0.1 | < 0.05 | > 5 | – | – | –
11 | Cc1ccc2c(Nc3ncc(C(=O)Nc4c(C)ccc(O)c4C)s3)nn(C)c2c1 [BAA-451, 2-((1,6-dimethyl-1H-indazol-3-yl)amino)-N-(3-hydroxy-2,6-dimethylphenyl)thiazole-5-carboxamide] | Y (>20 fold) | 1 to 11 | X (100-<1000 fold) | < 0.1 | < 0.05 | > 5 | – | – | –
12 | Cc1cn(-c2cnn(C(F)F)c2)nc1Nc1ncc(C(=O)Nc2c(C)ccc(O)c2C)s1 [BAA-394, 2-((1′-(difluoromethyl)-4-methyl-1′H-[1,4′-bipyrazol]-3-yl)amino)-N-(3-hydroxy-2,6-dimethylphenyl)thiazole-5-carboxamide] | Y (>20 fold) | 1 to 11 | X (100-<1000 fold) | < 0.1 | < 0.05 | 0.5 to 5 | – | – | –
13 | Cc1ccc(O)c(C)c1NC(=O)c1cnc(Nc2cccc(CC(=O)N(C)C3CC3)n2)s1 [BAA-428, 2-((6-(2-(Cyclopropyl(methyl)amino)-2-oxoethyl)pyridin-2-yl)amino)-N-(3-hydroxy-2,6-dimethylphenyl)thiazole-5-carboxamide] | Y (>20 fold) | – | – | < 0.1 | < 0.05 | > 5 | – | – | –
